Results: EP4635565A1, “PRENYLATED TETRAHYDROQUINOLINES AND QUINOLINES WITH PPAR AGONIST ACTIVITY” (Fundación para la Investigación del Hospital Clínico de la …, priority 2024, dated 2025)

Key:
[1] = target: T1, hPPARα (Homo sapiens, UniProt Q07869); assay: PPAR transactivation assay, human chimeric PPAR/Gal4 reporter luciferase system in Cos-7 cells (PPARα); format: cell-based
T1 sequence (Q07869 167-468): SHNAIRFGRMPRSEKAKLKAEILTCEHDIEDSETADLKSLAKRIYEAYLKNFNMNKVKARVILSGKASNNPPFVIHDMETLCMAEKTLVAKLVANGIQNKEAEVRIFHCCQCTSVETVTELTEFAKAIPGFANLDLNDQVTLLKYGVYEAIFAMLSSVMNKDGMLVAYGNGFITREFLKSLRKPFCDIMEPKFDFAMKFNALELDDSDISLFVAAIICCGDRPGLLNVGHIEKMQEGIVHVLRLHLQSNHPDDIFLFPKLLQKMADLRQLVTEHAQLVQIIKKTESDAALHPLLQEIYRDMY
Experimental: Transfections were stopped after 16 h by adding DMEM/10% FCS. Cells were detached with trypsin, re-seeded in 96-well plates for 6 h in DMEM/10% FCS, and incubated for 24 h in DMEM/0.2% FCS with increasing concentrations of the test compounds or vehicle (DMSO, 0.1% final concentration). At the end of the experiment, cells were washed once with ice-cold PBS, lysed, and luciferase and β-galactosidase activities were measured. Luciferase activity was normalised to that of the internal control, β-galactosidase. All transfection experiments were performed at least five times.
EC50 values against human PPARα/Gal4, PPARβ/δ/Gal4 and PPARγ/Gal4 receptors.

[2] = tested on: PDK4-(PPRE)3-Luc+; assay: Pdk4 transactivation assay (PDK4-(PPRE)3-Luc+ reporter in L929sA cells); format: cell-based, mouse; conditions: 10 µM, 6 h
Experimental: Transfection of L929sA cells stably expressing reporter genes was performed using the calcium phosphate precipitation protocol according to standard procedures with a 10-fold excess of the plasmid of interest in a pGL3-basic vector containing Luc+, a modified firefly luciferase gene (Promega Biotec, Madison, Wis,) USA. USA). The Pdk4 reporter was created using an enhancer site linked to the Pdk4 promoter containing three PPRE extracted from mouse liver genomic DNA. The aforementioned plasmid construct was then introduced into a pMet7 backbone, which had previously been cloned with a luciferase gene site, using Xhol and Sacl cut sites. The resulting construct was subjected to geneticin (neomycin) antibiotic selection to isolate individual clones. A stable cell line, designated Pdk4-Luc+, was subsequently established in L929sA cells, which also contained a constitutively expressed galactosidase reporter and a neomycin selection cassette.
Pyruvate Dehydrogenase Kinase 4 gene (Pdk4), a well-known target gene of PPARs, encodes a protein that regulates the phosphorylation and inactivation of the pyruvate dehydrogenase complex in response to physiological conditions. This response switches the energy source from glucose to fatty acids to maintain blood glucose levels to, thereby, increase lipid metabolism. Because it is a well-known target gene of PPARs, the effect of the 2- and 3-prenylated esters of tetrahydroquinolines and quinolines on a Pdk4 region reported to bind PPARα, was evaluated. The L929sA cells that were stably transfected with a PDK4-(PPRE)3-Luc+ reporter gene construct were used.

[3] = tested on: NF-κB-IL8P-Luc+; assay: NF-κB-IL8P transactivation assay (TNFα-stimulated L929sA cells); format: cell-based, mouse; conditions: 10 µM, 1 h before TNF (2000 IU/ml), total induction time 6 h; compared to GW7647
Experimental: L929sA mouse fibroblasts were stably transfected using the calcium phosphate precipitation protocol, as described previously with p1481.IL8P-Luc+ plasmid construct. The indicated induction was performed at least in triplicates. All conditions were solvent-controlled. Subsequently, the cells were washed with PBS and lysed using TROPIX lysis buffer. Cellular luciferase levels were normalised to those of β-galactosidase (TROPIX, Bedford, MA, USA).
PPARs play crucial roles in controlling inflammatory responses. NF-κB is a transcription factor that plays a pivotal role in the expression of multiple genes involved in the immune and inflammatory responses. To study the potential anti-inflammatory effects of the tetrahydroquinolines and quinolines of the invention, the NF-κB-dependent physiological human IL-8 promoter construct, p1481.IL8P-Luc+, which is stably integrated into L929sA cells, was tested. After transfection, cells were treated at 10 µM with 5a, 5b, 8a, or 8b prior to TNFa stimulation. […] Given the significant decrease in NF-κB-IL8P-Luc+ reporter gene activity observed after treatment with the 2- or 3-prenylated tetrahydroquinolines 5a and 5b and the 3-prenylated quinoline 8b, their potential anti-inflammatory effects at the transcriptional level for other inflammatory mediators was evaluated. To achieve this, the L929sA WT cells were treated with 5a, 5b and 8b at 10 µM for 1 h, followed by TNFa stimulation for a total induction time of 6 h. The expression of inflammatory genes was evaluated by RT-qPCR.

[4] = tested on: ob/ob mice; assay: In vivo study in ob/ob mice, biochemical analysis of blood; conditions: orally, 10 mg/kg/d, 15 days
Experimental: Animal studies were carried out in accordance with Directive 2010/63/EU for experimentation on animals. The handling of the animals and the experimental protocols were approved by the Animal Experimentation Ethics Committee of the University of Valencia (Protocol No. A1469445706311). Six-week-old male ob/ob mice (C57BL/6.Cg-Lepob/J) were supplied by Charles River Laboratories International (Wilmington, MA). Blood samples were collected from mice fasted for 6 hours to determine basal blood glucose levels. The animals, randomly divided into two groups (N ≈ 10-11 per group), were treated daily with vehicle (1% hydroxyethyl cellulose, Sigma-Aldrich) or with tetrahydroquinoline 5a at 10 mg/kg/day, for 15 days orally. After 15 days of treatment, and 6 h of fasting, the mice were anesthetized by inhalation of isoflurane and blood samples were collected in tubes with heparin or EDTA by intracardiac puncture. Plasma samples were obtained and stored at -80°C. Liver and epididymal white adipose tissue were removed and part of both organs were quickly frozen in liquid N2 for qPCR studies.
Plasma levels of total cholesterol and HDL-cholesterol (HDL-c) were determined by enzymatic processes using commercial kits: LabAssay™ Cholesterol (Wako Pure Chemicals Industries, Cape Charles, VA) and Mouse HDL-Cholesterol Assay Kit (Crystal Chem, Elk Grove Village, IL), respectively. Non-HDL cholesterol levels were calculated (total cholesterol - HDL-c). Fasting blood glucose levels were measured using a glucometer (Contour Next, Bayer HealthCare Pharmaceuticals LLC, Berlin, Germany), while insulin levels were determined using the commercial Mouse Insulin ELISA kit (Mercodia, Uppsala, Sweden). The HOMA-IR index was calculated using the following formula: fasting blood glucose (mmol/L) * fasting insulinemia (µU/mL) / 22.5.
Tetrahydroquinoline 5a administered for 15 days (orally, 10 mg/kg/d) to an obese and diabetic mouse model (ob/ob), improved lipid and carbohydrate parameters. Indeed, 5a decreased total cholesterol and non-HDL cholesterol levels, as well as insulin levels and the HOMA-IR index in the blood of oblob mice, compared to vehicle-treated mice (Figures 4A-4D).

[5] = compared to vehicle-treated mice

With `CCOC(=O)CC/C(C)=C/CCC1CCc2cc(OCc3ccccc3)ccc2N1C` (centres unmarked) [Compound 5a, Ethyl (E)-7-(6-(benzyloxy)-1-methyl-1,2,3,4-tetrahydroquinolin-2-yl)-4-methylhept-4-enoate] the EC50 [1] was 3.6 µM, the Emax at 10 µM ([1]; COS-7, read-out: Efficacy (%) at 10 µmol/L PPARα) was 76% and the “transactivation of the PDK4-Luc+ indicator” value ([2]; L929sA cells, compared to GW7647 at 1 µM) was “increased the transactivation of the PDK4-Luc+ indicator”. For the same compound, the “maximal transactivation response compared with GW7647” value ([2]; GW7647 at 1 µM as positive control) was “outperformed the maximal activity of the prior art compound GW7647”, the “transactivation of the TNFα-dependent NF-κB-driven reporter” value [3] was “can repress the transactivation of the TNFα-dependent NF-κB-driven reporter” and the “levels of hepatic transaminase ALT” value [4] was “did not increase”. The “levels of hepatic transaminase AST” value [4] was “did not increase”, the HOMA-IR index ([4]; compared to vehicle, calculated from fasting glucose and insulin) was “decreased” and the non-HDL cholesterol levels ([4]; compared to vehicle, total cholesterol - HDL-c) was “decreased”. For the same compound, the insulin levels [4, 5] was “decreased” and the total cholesterol levels [4, 5] was “decreased”.
